In ChEMBL document CHEMBL5614422, “Design, synthesis and biological evaluation of N-salicyloyl tryptamine derivatives as multifunctional neuroprotectants for the treatment of ischemic stroke” (Eur J Med Chem, 2024):
In brackets after ≈: the same amount, converted by molar mass.

Tests used:
[1] = Cytotoxicity against mouse BV-2 cells assessed as cell viability incubated for 24 hrs by CCK-8 method; assay type: toxicity, cell-based
HT-22 [2] = experiment: Neuroprotective activity against OGD/R induced cell damage in mouse HT-22 cells assessed as cell viability at 10 uM measured after 24 hrs by MTT assay (reference value: 69.01 +/-2.90%); assay type: functional; conditions: read-out: Activity
[3] = Cytotoxicity against mouse HT-22 cells assessed as cell viability incubated for 24 hrs by CCK-8 method; assay type: toxicity, cell-based
[4] = Permeability of the compound by PAMPA method; assay type: ADME; conditions: read-out: permeability
[5] = Antioxidant activity assessed as trolox equivalent of ORAC radical scavenging activity at 0.125 to 2 uM by AAPH based automatic microplate reader analysis; assay type: functional; conditions: dose 0.125-2 µM
HT-22 [6] = experiment: Anti-apoptotic activity in OGD/R mouse HT-22 cells assessed as late apoptotic cells at 10 uM by annexin V-FITC and PI staining based flow cytometry analysis (reference value: 7.26%); assay type: functional
HT-22 [7] = experiment: Anti-apoptotic activity in OGD/R mouse HT-22 cells assessed as viable cells at 10 uM by annexin V-FITC and PI staining based flow cytometry analysis (reference value: 83.09%); assay type: functional; conditions: read-out: Activity
HT-22 [8] = experiment: Anti-apoptotic activity in OGD/R mouse HT-22 cells assessed as early apoptotic cells at 10 uM by annexin V-FITC and PI staining based flow cytometry analysis (reference value: 9.51%); assay type: functional
HT-22 [9] = experiment: Anti-apoptotic activity in OGD/R mouse HT-22 cells assessed as necrotic cells at 10 uM by annexin V-FITC and PI staining based flow cytometry analysis (reference value: 0.14%); assay type: functional
[10] = Aqueous solubility of the compound incubated for 72 hrs under shaking condition by HPLC analysis; assay type: physicochemical
HT-22 [11] = experiment: Antioxidant activity against OGD/R induced damage in mouse HT-22 cells assessed as decrease in proportion of mitochondrial depolarized cells at 10 uM by JC-1 fluorescence based flow cytometry analysis (reference value: 91.7%); assay type: functional; set-up: scale not given: the % may be the effect or the level left

Compound | IC50 at 24 h [1] | viability at 10 µM (HT-22 [2]) | IC50 at 24 h [3] | further results
Cc1ccc(C(=O)NCCc2c[nH]c3c(C)cccc23)c(O)c1 | 39.1 µM | 79.5% | > 100 µM | 
Cc1cccc(C(=O)NCCc2c[nH]c3ccccc23)c1O | 36.1 µM | 87.2% | 51.5 µM | 
Cc1ccc(C(=O)NCCc2c[nH]c3ccc(Br)cc23)c(O)c1 | 88.6 µM | 67.8% | 76.1 µM | 
COc1cccc2[nH]cc(CCNC(=O)c3ccc(C)cc3O)c12 | 96 µM | 74% | 78.4 µM | 
Cc1ccc(O)c(C(=O)NCCc2c[nH]c3ccccc23)c1 | 50.2 µM | 76.5% | 51.1 µM | 
CN1CCN(C2=Nc3cc(Cl)ccc3Nc3ccccc32)CC1 [CLOZAPINE] |  |  |  | Papp [4]: 8.34 ×10⁻⁶ cm/s
CNc1cccc2c(CCNC(=O)c3ccc(C)cc3O)c[nH]c12 | 28.9 µM | 80.8% | > 100 µM | 
O=C(NCCc1c[nH]c2ccccc12)c1c(O)cccc1F | > 100 µM | 87.7% | > 100 µM | 
Cc1ccc(C(=O)NCCc2c[nH]c3cc(F)cc(F)c23)c(O)c1 | 32.7 µM | 89.2% | 61.9 µM | 
O=C(NCCc1c[nH]c2ccccc12)c1cc(Br)ccc1O | 68.2 µM | 73.4% | 64.7 µM | 
Cc1ccc(C(=O)NCCc2c[nH]c3cc4c(cc23)OCO4)c(O)c1 | 98.8 µM | 82.8% | > 100 µM | 
COc1cc2[nH]cc(CCNC(=O)c3ccc(C)cc3O)c2cc1OC | 26.5 µM | 75% | 54.6 µM | 
Cc1ccc(C(=O)NCCc2c[nH]c3c(Cl)cccc23)c(O)c1 | 62.2 µM | 74.8% | > 100 µM | 
Cc1ccc(C(=O)NCCc2c[nH]c3cccc(C)c23)c(O)c1 | > 100 µM | 52.4% | > 100 µM | 
Cc1ccc(C(=O)NCCc2c[nH]c3cccc(Br)c23)c(O)c1 | > 100 µM | 73.1% | > 100 µM | 
COc1cc(C)cc2[nH]cc(CCNC(=O)c3ccc(C)cc3O)c12 | 52.9 µM | 85.4% | 73 µM | 
Cc1ccc(C(=O)NCCc2c[nH]c3cccc(F)c23)c(O)c1 | 81.7 µM | 94.5% | 84.6 µM | Activity [5]: 3.7
O=C(NCCc1c[nH]c2ccccc12)c1cccc(Br)c1O | 85.4 µM | 79.7% | 48.5 µM | 
COc1ccc2c(CCNC(=O)c3ccc(C)cc3O)c[nH]c2c1 | > 100 µM | 61.5% | 102 µM | 
COc1ccc(O)c(C(=O)NCCc2c[nH]c3ccccc23)c1 | 51 µM | 88.5% | > 100 µM | Activity (HT-22 [6]): 5.18%; viability at 10 µM (HT-22 [7]): 89.1%; Activity (HT-22 [8]): 5.54%; Activity (HT-22 [9]): 0.16%
Cc1ccc(C(=O)NCCc2c[nH]c3cc(N(C)C)ccc23)c(O)c1 | 52.4 µM | 88.9% | 46.4 µM | 
Cc1ccc(C(=O)NCCc2c[nH]c3c(F)cccc23)c(O)c1 | 43 µM | 92.5% | 86.2 µM | 
COc1cccc(C(=O)NCCc2c[nH]c3ccccc23)c1O | > 100 µM | 87.8% | > 100 µM | 
O=C(NCCc1c[nH]c2ccccc12)c1ccc(Cl)cc1O | 53.4 µM | 65.8% | 99.7 µM | 

Compound | IC50 at 24 h [1] | viability at 10 µM (HT-22 [2]) | IC50 at 24 h [3] | further results
CC1=NN(c2ccccc2)C(=O)C1 [EDARAVONE] |  | 80.9% |  | Activity (HT-22 [6]): 5.39%; viability at 10 µM (HT-22 [7]): 92.1%; solubility thermodynamic at 72 h [10]: 1840 µg/mL (≈ 10.6 mM); Activity (HT-22 [11]): 67.9%; Activity [5]: 2.8; Activity (HT-22 [8]): 1.78%; Activity (HT-22 [9]): 0.72%
Cc1ccc(C(=O)NCCc2c[nH]c3c(Br)cccc23)c(O)c1 | 52.8 µM | 78.1% | > 100 µM | 
COc1cccc(O)c1C(=O)NCCc1c[nH]c2ccccc12 | 21.7 µM | 59.2% | 8.06 µM | 
Cc1ccc(C(=O)NCCc2c[nH]c3ccc(F)cc23)c(O)c1 | > 100 µM | 83.9% | > 100 µM | Activity [5]: 3.1
Cc1ccc(C(=O)NCCc2c[nH]c3ccc(C)cc23)c(O)c1 | 79.3 µM | 89.5% | > 100 µM | Activity [5]: 3.1
Cc1ccc(C(=O)NCCc2c[nH]c3cc(Br)ccc23)c(O)c1 | 46.6 µM | 66.2% | 70.8 µM | 
Cc1ccc(C(=O)NCCc2c[nH]c3ccccc23)c(O)c1 | > 100 µM | 88.8% | > 100 µM | Activity (HT-22 [11]): 74%; Activity [5]: 4.4
COc1ccc2[nH]cc(CCNC(=O)c3ccc(C)cc3O)c2c1 | > 100 µM | 74% | > 100 µM | 
Cc1ccc(C(=O)NCCc2c[nH]c3ccc(Cl)cc23)c(O)c1 | 80.5 µM | 76% | 61.2 µM | 
O=C(NCCc1c[nH]c2ccccc12)c1cccc(Cl)c1O | 50.4 µM | 87.9% | 52 µM | 
O=C(NCCc1c[nH]c2ccccc12)c1ccccc1O | 55.1 µM | 83% | > 100 µM | 
Cc1ccc(C(=O)NCCc2c[nH]c3c(N(C)C)cccc23)c(O)c1 | > 100 µM | 87.1% | 59.8 µM | 
CNc1ccc2[nH]cc(CCNC(=O)c3ccc(C)cc3O)c2c1 | 95.4 µM | 82.4% | > 100 µM | 
Cc1ccc(C(=O)NCCc2c[nH]c3cc(F)ccc23)c(O)c1 | > 100 µM | 77.7% | > 100 µM | 
COc1ccc(C(=O)NCCc2c[nH]c3ccccc23)c(O)c1 | 68 µM | 86.9% | 52.6 µM | 
O=C(NCCc1c[nH]c2ccccc12)c1ccc(Br)cc1O | > 100 µM | 76.2% | > 100 µM | 
COc1cc(Cl)c2c(CCNC(=O)c3ccc(C)cc3O)c[nH]c2c1 | > 100 µM | 60.1% | > 100 µM | 
COc1cccc2c(CCNC(=O)c3ccc(C)cc3O)c[nH]c12 | 90.9 µM | 91.5% | 73.2 µM | Activity [5]: 2
Cc1cccc(O)c1C(=O)NCCc1c[nH]c2ccccc12 | 43.6 µM | 88.4% | 60 µM | 
Cc1ccc(C(=O)NCCc2c[nH]c3cc(Cl)ccc23)c(O)c1 | 52.5 µM | 64.6% | 63.1 µM | 
O=C(NCCc1c[nH]c2ccccc12)c1cc(Cl)ccc1O | > 100 µM | 77.2% | > 100 µM | 
Cc1ccc(C(=O)NCCc2c[nH]c3cccc(Cl)c23)c(O)c1 | 89.1 µM | 71.1% | > 100 µM | 
Cc1ccc(C(=O)NCCc2c[nH]c3cc(C)ccc23)c(O)c1 | > 100 µM | 60.2% | > 100 µM | 
